The values below come from ChEMBL document CHEMBL3046031, “Comparison of Acaricidal, Insecticidal, and Nerve Activities of Halfenprox (MTI-732) and Related Compounds” (1996).

SMILES strings stand for the structures. Calls of active or inactive are those of the source. No cut-off for these calls is given here.

The test system of the first test is Spodoptera litura. The experiment in a line: Insecticidal activity against third-instar larvae of Spodoptera litura infested compound-treated cabbage leaf assessed as mortality after 48 hr in presence of piperonyl butoxide. In kind it is functional.
Consider `CC(C)(COCc1cccc(Oc2ccccc2)c1)c1ccc(OC(F)(F)Br)cc1` [halfenprox], for which the “log(1/MLD)” value was determined as 9.77.

On to `CC(C)(COCc1cccc(Oc2ccccc2)c1)c1ccc(OC(F)F)cc1`, for which the “log(1/MLD)” value came out at 9.52.

As for `CC(C)(COCc1cccc(Oc2ccccc2)c1)c1ccc(OC(F)(F)F)cc1`, the “log(1/MLD)” value is reported as 9.75.

Turning to `CCOc1ccc(C(C)(C)COCc2cccc(Oc3ccccc3)c2)cc1` [ETOFENPROX], the “log(1/MLD)” value came to 9.79.

Consider `CC(C)(COCc1cccc(Oc2ccccc2)c1)c1ccc(OC(F)(F)Cl)cc1`, for which the “log(1/MLD)” value was 9.75.

For another test, the system named is Spodoptera litura. Description: Insecticidal activity against third-instar larvae of Spodoptera litura infested compound-treated cabbage leaf assessed as mortality after 48 hr. Format: functional.
Consider `CC(C)(COCc1cccc(Oc2ccccc2)c1)c1ccc(OC(F)(F)Br)cc1` [halfenprox], for which the “log(1/LC50)” value is reported as 4.83.

Consider `CC(C)(COCc1cccc(Oc2ccccc2)c1)c1ccc(OC(F)F)cc1`, for which the “log(1/LC50)” value is given as 4.7.

With `CC(C)(COCc1cccc(Oc2ccccc2)c1)c1ccc(OC(F)(F)F)cc1`, the “log(1/LC50)” value is on record as 5.36.

Take `CCOc1ccc(C(C)(C)COCc2cccc(Oc3ccccc3)c2)cc1` [ETOFENPROX]: the “log(1/LC50)” value was 4.68.

Turning to `CC(C)(COCc1cccc(Oc2ccccc2)c1)c1ccc(OC(F)(F)Cl)cc1`, the “log(1/LC50)” value came to 4.96.

Another test has as its system Tetranychus urticae. The experiment in a line: Ratio of etofenprox LC50 to compound LC50 for Tetranychus urticae (two-spotted spider mite) infested kidney bean leaf disk. Format: functional.
As for `CC(C)(COCc1cccc(Oc2ccccc2)c1)c1ccc(OC(F)(F)Br)cc1` [halfenprox], the RatioLC50 is on record as 200.

The test system of the next test is Nerve cord. Description: Induction of repetitive firing in excised nerve cord of Periplaneta americana (American cockroach) measured up to 32 min. Format: functional.
With `CC(C)(COCc1cccc(Oc2ccccc2)c1)c1ccc(OC(F)(F)Br)cc1` [halfenprox], the “log(1/MEC)” value was found to be 6.57.

Consider `CC(C)(COCc1cccc(Oc2ccccc2)c1)c1ccc(OC(F)F)cc1`, for which the “log(1/MEC)” value was determined as 7.73.

Turning to `CC(C)(COCc1cccc(Oc2ccccc2)c1)c1ccc(OC(F)(F)F)cc1`, the “log(1/MEC)” value came to 7.45.

Regarding `CCOc1ccc(C(C)(C)COCc2cccc(Oc3ccccc3)c2)cc1` [ETOFENPROX], the “log(1/MEC)” value came to 8.

Take `CC(C)(COCc1cccc(Oc2ccccc2)c1)c1ccc(OC(F)(F)Cl)cc1`: the “log(1/MEC)” value came to 6.14.

The next test deals with Periplaneta americana. The experiment in a line: Insecticidal activity against Periplaneta americana (American cockroach) assessed as paralysis/mortality compound injected into abdomen after 24 hr. In kind it is functional.
Consider `CC(C)(COCc1cccc(Oc2ccccc2)c1)c1ccc(OC(F)(F)Br)cc1` [halfenprox], for which the “log(1/MLD)” value came out at 9.67.

Consider `CC(C)(COCc1cccc(Oc2ccccc2)c1)c1ccc(OC(F)F)cc1`, for which the “log(1/MLD)” value is 9.03.

Turning to `CC(C)(COCc1cccc(Oc2ccccc2)c1)c1ccc(OC(F)(F)F)cc1`, the “log(1/MLD)” value worked out at 9.64.

With `CCOc1ccc(C(C)(C)COCc2cccc(Oc3ccccc3)c2)cc1` [ETOFENPROX], the “log(1/MLD)” value is given as 9.49.

For the compound `CC(C)(COCc1cccc(Oc2ccccc2)c1)c1ccc(OC(F)(F)Cl)cc1`, the “log(1/MLD)” value was 9.55.

Another test deals with Tetranychus urticae. Description: Acaricidal activity against Tetranychus urticae (two-spotted spider mite) infested kidney bean leaf disk assessed as mortality measured after 48 hr. In kind it is functional.
On to `CC(C)(COCc1cccc(Oc2ccccc2)c1)c1ccc(OC(F)(F)Br)cc1` [halfenprox], for which the “log(1/LC50)” value turned out to be 5.77.

With `CC(C)(COCc1cccc(Oc2ccccc2)c1)c1ccc(OC(F)F)cc1`, the “log(1/LC50)” value is given as 3.75.

For `CC(C)(COCc1cccc(Oc2ccccc2)c1)c1ccc(OC(F)(F)F)cc1`, the “log(1/LC50)” value is given as 5.14.

`CCOc1ccc(C(C)(C)COCc2cccc(Oc3ccccc3)c2)cc1` [ETOFENPROX]: the “log(1/LC50)” value was found to be 3.48.

Turning to `CC(C)(COCc1cccc(Oc2ccccc2)c1)c1ccc(OC(F)(F)Cl)cc1`, the “log(1/LC50)” value is listed as 5.34.

The test system of another test is Procambarus clarkii. Description: Induction of depolarization in Procambarus clarkii (crayfish) giant axons assessed as transient inward sodium currents at -100 to -20 mV holding potential at 2 x 10 '-5 M. Format: functional.
For the compound `CC(C)(COCc1cccc(Oc2ccccc2)c1)c1ccc(OC(F)(F)Br)cc1` [halfenprox], the result was Active.

Turning to `CC(C)(COCc1cccc(Oc2ccccc2)c1)c1ccc(OC(F)F)cc1`, the result was Active.

Regarding `CC(C)(COCc1cccc(Oc2ccccc2)c1)c1ccc(OC(F)(F)F)cc1`, the result was Active.

As to `CCOc1ccc(C(C)(C)COCc2cccc(Oc3ccccc3)c2)cc1` [ETOFENPROX], the result was Active.

In the case of `CC(C)(COCc1cccc(Oc2ccccc2)c1)c1ccc(OC(F)(F)Cl)cc1`, the outcome was Active.
